Measurements taken from article PMC12140054, “Small glycomimetic antagonists of the cytomegalovirus glycoprotein UL141 prevent binding to TRAIL death receptor” (The Journal of Biological Chemistry, 2025).
Several values for one entry are separate records, joined by “and”; a condition that tells them apart may be missing. Equal entries are not always repeated.

Experiments:
HCMV UL141 = molecular target: T1, HCMV UL141 (Human cytomegalovirus, UniProt Q6RJQ3); test: biochemical; assay type: binding
T1 construct: we expressed and purified the full-length recombinant UL141 (amino acids 30–300); made in house
T1 sequence (Q6RJQ3 30-300): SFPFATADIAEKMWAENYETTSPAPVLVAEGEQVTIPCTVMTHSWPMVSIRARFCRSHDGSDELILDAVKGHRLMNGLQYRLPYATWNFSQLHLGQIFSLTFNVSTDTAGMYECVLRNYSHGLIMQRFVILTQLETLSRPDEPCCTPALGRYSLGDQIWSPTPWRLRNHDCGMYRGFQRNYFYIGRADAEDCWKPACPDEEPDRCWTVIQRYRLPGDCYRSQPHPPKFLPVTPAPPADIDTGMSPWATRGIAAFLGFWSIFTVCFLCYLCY
Protocol: To prepare HCMV UL141 for binding studies, biotinylation was performed using the BiotinTag Micro Biotinylation Kit (Sigma-Aldrich). Purified UL141 protein (50 μg in 50 μl) was mixed with 50 μl of BiotinTag reaction buffer provided in the kit. Sulfo-NHS-Biotin reagent was freshly prepared by dissolving the vial contents in 1 ml of sterile water. A calculated volume of the biotin reagent was added to achieve a 20:1 M excess of biotin to protein. The reaction mixture was incubated for 30 min at room temperature with gentle mixing to ensure efficient labeling. Following incubation, unreacted biotin was removed using the desalting column included in the kit. The biotinylated UL141 protein was eluted in 50 mM Hepes, pH 7.5, 150 mM NaCl. Biotin incorporation was verified using a colorimetric biotin quantification assay (e.g., HABA assay). The biotinylated protein was then quantified spectrophotometrically using a NanoDrop instrument and concentrated to the desired level for Biacore or ELISA binding studies. The biotinylated protein was stored at 4 °C for short-term use or −80 °C for long-term storage to maintain stability.
The sensor surface of an SA chip (Cytiva) was preconditioned with HBS-EP buffer (10 mM Hepes, 150 mM NaCl, 3 mM EDTA, 0.005% Tween-20) to stabilize the baseline and remove any loosely bound streptavidin. Before use, the buffer was filtered through a 0.2 μm polystyrene filter and degassed under vacuum for 10 min to eliminate air bubbles. Biotinylated HCMV UL141 was immobilized on the SA chip, maintaining biotinylation at 0.5 to 1.5 mol per mole of protein. Excess biotin was removed via gel filtration. UL141 was injected at 30 μl/min, achieving maximum immobilization (4000–6000 RU), followed by washing with running buffer. Residual unbound proteins were optionally removed with a 2 M NaCl pulse. To ensure optimal SPR signal detection, which depends on the analyte mass bound to the ligand, relatively high amounts of ligand were immobilized on the sensor chip to achieve a significant response signal upon binding of the small compound. […] Regeneration of the chip surface, when necessary, was performed using 5 mM NaOH. Control injections of zero concentrations and duplicate injections of selected concentrations were included to validate surface regeneration. […]

UL141 W235A mutant = molecular target: T2, UL141 W235A mutant (Human cytomegalovirus, UniProt Q6RJQ3, W235A); test: SPR binding to UL141 alanine mutant W235A; conditions: W235A (site C), 0 to 25 μM
T2 construct: extracellular domain of HCMV UL141 (residues 30–300, Gene ID: 3077418); made in house; host or cells: Sf9 (baculovirus)
T2 sequence (Q6RJQ3 30-300 W235A): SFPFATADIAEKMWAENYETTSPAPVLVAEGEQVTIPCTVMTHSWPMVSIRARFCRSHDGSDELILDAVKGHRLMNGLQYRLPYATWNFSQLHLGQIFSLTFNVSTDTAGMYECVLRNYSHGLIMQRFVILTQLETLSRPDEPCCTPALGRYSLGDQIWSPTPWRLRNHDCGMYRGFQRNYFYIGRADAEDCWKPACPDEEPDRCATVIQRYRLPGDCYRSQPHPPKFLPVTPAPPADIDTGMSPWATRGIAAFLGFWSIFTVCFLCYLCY
Text: (§1) Collectively, the findings from molecular modeling, ELISA, and SPR prompted a more detailed investigation into the binding mechanisms, leading us to explore the possibility of distinct binding sites for UL141 in its interaction with glycomimetic compound 18. To further clarify this, we conducted mutational analysis on the surface residues of UL141 to identify specific binding sites involved in this interaction. The following residues were selected for alanine-scanning mutagenesis, followed by SPR analysis to assess their contribution to the binding affinity of UL141 for 18: Asp91, Glu92, Arg82, Arg80, and Asp37 (site A); Tyr148 and Arg146 (site B); and Arg85, Leu163, Glu164, Pro231, Trp235, and Asp232 (site C) (Fig. 9A). The UL141 mutants were generated through single alanine substitutions and recombinantly produced in the BV-Sf9 system following the same protocol as the WT UL141. […] The binding affinities of the remaining mutants were assessed using SPR, as illustrated in Figure 9. […] Binding interactions were monitored over a 300-s period. […]
(§2) Figure 9 Mutational analysis of UL141 binding sites for antagonist 18. […] An alternative representation of the same SPR data, showing all measured concentration points, is provided in panel (C), with the structure of compound 18 included for reference. […]

UL141 D232A mutant = molecular target: T3, UL141 D232A mutant (Human cytomegalovirus, UniProt Q6RJQ3, D232A); test: SPR binding to UL141 alanine mutant D232A; conditions: D232A (site C), 0 to 25 μM
T3 construct: extracellular domain of HCMV UL141 (residues 30–300, Gene ID: 3077418); made in house; host or cells: Sf9 (baculovirus)
T3 sequence (Q6RJQ3 30-300 D232A): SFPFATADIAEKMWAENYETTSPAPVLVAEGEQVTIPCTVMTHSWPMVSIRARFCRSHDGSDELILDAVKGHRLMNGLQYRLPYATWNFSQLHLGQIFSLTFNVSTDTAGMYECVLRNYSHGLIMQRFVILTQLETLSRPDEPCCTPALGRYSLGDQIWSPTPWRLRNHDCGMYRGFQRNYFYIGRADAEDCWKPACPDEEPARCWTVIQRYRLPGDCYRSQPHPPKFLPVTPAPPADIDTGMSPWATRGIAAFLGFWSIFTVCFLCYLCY
Text: as §1, §2

[1] = UL141 immobilized, substance as analyte, 1:1 Langmuir model
[2] = UL141 immobilized, substance as analyte, 1:1 Langmuir model, listed as cmp 18

Question: What does the source list for `CCC1C(O)C(O)CN1Cc1ccc(I)cc1` (stereo not drawn) [Compound 18]?
Answer: Kd (HCMV UL141; UL141 immobilized (ligand), substance in solution (analyte), 1:1 Langmuir model, 25 °C): 2.93 µM; Kd (HCMV UL141; binding to UL141, SPR): 2.93 µM and 2.9 µM; Rmax (HCMV UL141; UL141 immobilized, substance as analyte): 19; koff (HCMV UL141; [1]): 0.157 s⁻¹; kon (HCMV UL141; [1]): 53600 M⁻¹ s⁻¹; koff (HCMV UL141; [2]): (1.57 ± 0.039) × 10^−1 s^−1; kon (HCMV UL141; [2]): (5.36 ± 0.003) × 10^4 M^−1s^−1; binding to UL141 mutant (UL141 W235A mutant): prevented binding; binding to UL141 mutant (UL141 D232A mutant): prevented binding
